Data published in patent publication US7795208B2, “Methods of using deacetylase inhibitors to promote cell differentiation and regeneration” (The Salk Institute for Biological Study, priority 2001, dated 2010).
Values joined by “and” are separate entries in the source; they are usually repeats but may differ in a detail not shown here. Identical values can stand only once.

What was measured:
[1] = test system: human skeletal myocytes (HSkM); assay: MHC-positive myotube formation in primary human skeletal myocytes; assay type: cell-based; conditions: HSkM treated 24 hours in GM, then DM without TSA 48 hours
Experimental: Cellular extracts were obtained and analyzed by Western blotting for the presence of MHC, tubulin, and myogenin. […] Nuclei were stained with DAPI. […] Additionally, RT-PCR was performed on RNA obtained form cells treated with TSA (T) or without (-) TSA with specific primers for either MCK or GAPDH. […] Nuclei were stained with DAPI. […] Cells were grown in GM and treated with TSA for 24 hours, then switched to DM in the absence of TSA for additional 48 hours. Nuclei were stained with DAPI. Additionally, a Western blot analysis of MHC and tubulin expression in either untreated or TSA-treated (T) HSkM is shown. […] Nuclei were stained with DAPI. Mouse muscle myoblast C2C12 cells (obtained from the American Type Culture Collection, ATCC CRL-1772) and CC42 cells (from Dr. Kenneth Walsh, Tufts University School of Medicine) were cultured in DMEM supplemented with 20% fetal bovine serum, 2 mM glutamine and 1× kanamycin (growth medium, GM). Cellular differentiation was induced with DMEM supplemented with 2% horse serum and 1× insulin, transferring, selenium (Life Technologies). Human skeletal myocytes (CC-2561) were purchased from Clonetics. […] Following transfections, luciferase activity was determined using the Dual-Luciferase reporter assay system (Promega) on a microtiter luminescence detection system (MLX, Dynex). […]

[2] = test system: histones of the MCK enhancer; assay: Chromatin immunoprecipitation with anti-acetyl-histone H4; assay type: cell-based, mouse; conditions: myoblasts exposed to TSA in GM 16 hours, then DM 24 hours
Experimental: In FIG. 3A, MyoD acetylation in undifferentiated C2C12 myoblasts (GM) untreated (−) or treated with either sodium butyrate (Butyr.) or TSA and in differentiated myotubes (abbrev. DM in FIG. 3A, but not to be confused with the abbreviation for “differentiation medium” as used elsewhere herein) was measured by ^3H incorporation of exogenously transfected Flag-tagged MyoD following metabolic labeling with ^3H sodium acetate as described in Sartorelli, V., et al., Molecular Cell 4:725-34 (1999). […] Chromatin was immunoprecipitated with antibodies against acetyl-histone 4 (AcH4) or IgG (as a control). Purified DNA from anti-AcH4 immunoprecipitated chromatin was analyzed by PCR using primers recognizing GAPDH promoter and MCK enhancer as described in Example 1. Unbound DNA (lanes 2 and 3, top panel) is an aliquot of chromatin not immunoprecipitated by anti-AcH4 antibody and amplified with GAPDH primers. Input (lanes 2 and 3, bottom panel) is an aliquot (1%) of the chromatin analyzed before the immunoprecipitation to quantify the amount of DNA present in different samples. […] Myoblasts were then formaldehyde cross-linked and processed. […]
The MCK primers amplify nucleotides −1229 to −1007 of the MCK enhancer, while the GAPDH primers amplify nucleotides −1030 to −721. The PCR products were analyzed on 6% non-denaturing polyacrylamide gels. […]

MLC3F-lacZ-nls construct = assay: β-Galactosidase assay of cells transfected with MLC3F-lacZ-nls; assay type: cell-based, mouse; conditions: transfected cells exposed in GM, then DM 48 hours; vs non-treated cells
Experimental: FIGS. 4A-C illustrate that embryos exposed to DI display enhanced somitogenesis and increased muscle gene expression. […] Cells were then exposed to TSA (50 nM) in GM and subsequently switched to DM for 48 hours. Cells were stained to detect β-galactosidase activity. FIG. 4B is a picture of E 10.5 embryos derived from MLC1/3F-nLacZ transgenic mice exposed to either TSA or VPA treatment (see Example 1) and stained for 1 hour at 30° C. to detect β-galactosidase activity. […] FIG. 4C is a Western blot of extracts derived from total embryos exposed to either TSA or VPA; MHC is detected.
Cells transfected with MLC-lacZ-nls were washed twice in PBS, fixed in 4% paraformaldeheyde-PBS for 5 min, washed twice in PBS, and stained for 2-5 hrs with 5 mM potassium ferrycyanide, 5 mM potassium ferrocyanide, 2 mM MgCl2, 1 mg/ml X-gal (5-bromo-4-chloro-3-indolyl-β-D-galactoside).

mouse embryos = assay: Embryos of pregnant MLC1/3F-nLacZ mice exposed in utero (somitogenesis, muscle gene expression); assay type: in vivo
Experimental: MLC1/3F-nLacZ pregnant mice (E 8.5) received intra peritoneal injection of 15 μg of TSA (WAKO chemicals, Neuss Germany) or VPA (Sigma) at E 8.5 and E 9.5 as described in Faiella, A., et al., Hum Mol Genet 9:227-36 (2000), and Nervi, C., et al., Cancer Res 61:1247-9 (2001). VPA was dissolved in distilled water and administered at doses of 6 mg/mice (about 150 μg/ml) every 12 h at E 8.5, E 9, E 9.5, E 10 as described in Faiella et al. (2000). […] Mice were sacrificed at E 10.5, and the embryos were observed under a dissecting stereo-microscope to evaluate their viability, presence of external malformations, and number of somites. Embryos were fixed in 4% paraformaldehyde for histology and X-Gal staining or immunocytochemistry using antibodies against MyoD and myosin heavy chains as described in Tajbakhsh, S., et al., Neuron 13:813-21 (1994).
DI was administered intraperitoneally to pregnant mice (at a concentration of 0.5 to 1 mg/Kg for TSA and 200 mg/Kg for VPA) at post-implantation stages of E 8.5, and the pregnant mice were sacrificed at 10.5, when MyoD expression is clearly detectable in the myotomes. […] In Table 2, Somites of MLC1/3F-nLacZ mice (injected at day 8.5 and sacrificed at day 10.5) were scored after staining the embryos to detect β-galactosidase activity.

[3] = i.p. to pregnant mice at E 8.5, sacrificed at 10.5, 0.5 to 1 mg/Kg TSA, 200 mg/Kg VPA
[4] = treated at E 8.5, sacrificed at E 9.5

Q: Which “formation of MHC-positive myotubes and MHC expression levels” value [1] does the source give for `CC(/C=C/C(=O)NO)=C\[C@@H](C)C(=O)c1ccc(N(C)C)cc1` [TSA, trichostatin A] here?
A: greatly enhanced the formation of MHC-positive myotubes and increased the MHC expression levels

Q: What about the “histone H4 acetylation of the MCK enhancer (ChIP)” value [2] of the same compound?
A: histone hyperacetylation of the MCK enhancer

Q: What about the β-galactosidase-positive nuclei (MLC3F-lacZ-nls construct) of the same compound?
A: increased β-galactosidase-positive nuclei

Q: And the “level of MLC-lacZ transgene expression” value (mouse embryos; E 10.5 embryos, vs control embryos)?
A: higher level of MLC-lacZ transgene expression

Q: And the “# somites (β-galactosidase staining)” value (mouse embryos; MLC1/3F-nLacZ mice injected at day 8.5, sacrificed at day 10.5, TSA [1 mg/ml] (20 ul + 380 ul PBS), VPA 155 mM, one value per embryo, PBS controls 25-32)?
A: 32 and 37 and 34 and 36 and 33

Q: And the Notch transcripts (mouse embryos; animals exposed to a DI)?
A: increased

Q: What about the “levels of MHC in exposed embryos (Western blot)” value (mouse embryos; extracts of total embryos) of the same compound?
A: augmented the levels of MHC

Q: And the “number of MLC expressing somites” value (mouse embryos; [3])?
A: consistently increased

Q: And the “number of MyoD expressing myotomes” value (mouse embryos; [3])?
A: consistently increased

Q: What about the “acetylation of histone H4 in embryos” value (mouse embryos; [4]) of the same compound?
A: increased acetylation of histone H4

Q: And the “embryo size vs control embryos” value (mouse embryos; [4])?
A: modestly and consistently larger than control embryos

Q: And the “increase in number of somites vs control embryos” value (mouse embryos; [4])?
A: +2 to +6

Q: What about the “number of somites expressing Myf-5” value (mouse embryos; [4]) of the same compound?
A: increased
